SMILES strings stand for the structures.

The results in this text go back to US20220023269A1, “Methods Of Treating Diabetes In Severe Insulin-Resistant Diabetic Subjects” (Balticgruppen Bio AB, priority 2018, published 2022).

Assay [1] concerns AMPK. The assay can be described thus: SAMS peptide AMPK activity assay. The format is biochemical. Conditions: 2.5, 5 or 10 μM. The procedure: 50 ng AMPK (Upstate #14-305) was mixed in various combination with 2.5, 5 or 10 μM test material or 20 μM AMP (Sigma #A2002) in buffer (40 mM Hepes pH7.45, 0.5 mM DTT, 2 mM MgCl2, 0.1% DMSO). In all settings 10 μg SAMS and 0.03 μCi/μl ^32P ATP (Perkin Elmer #NEG502Z500UC) were added. Total reaction volume was 25 μl, all components mixed on ice and the reaction carried out at 37° C., 15 minutes, before terminated with 5 μl phosphoric acid, and placed back on ice. 25 μl reaction were dried in on Whatman P81 filters, 50° C., 2 minutes, washed 3 times in 250 ml 1% phosphoric acid, 2 minutes, before added to 4 ml liquid scintillation cocktail (Perkin Elmer #1200-437) and counted, 1 minute, in a Wallac 1414 beta counter. The radioactivity correlates to enzyme activity.

In assay [2] the test system is AMPK in human skeletal myotubes. The assay can be described thus: AMPK activation assay in human skeletal myotubes. The format is cell-based. Particulars: cells preferentially expressing β2 subunit. The protocol:
(§1) All cell lines were lysed in 0.1 M Tris-HCl, pH 6.8, 2% SDS, 10 mM sodium fluoride (SIGMA #S7920), 10 mM β-glycerophosphate (SIGMA #G6376), and 1 mM sodium vanadate (SIGMA #72060) and supernatant collected after 1 minute at 14,000 rpm. Islets (human and mouse) were lysed in 0.1 M Tris-HCl, pH 6.8, 2% SDS, protease inhibitor (Roche #04 693 124 001) and phosphatase inhibitor (Roche #04 906 837 001). Right calf muscle, heart, iWAT, and interscapular BAT was crushed in a pestle using liquid nitrogen and homogenised in ice cold RIPA buffer (150 mM sodium chloride (SIGMA #S7653), 1.0% NP40 (USB), 0.5% sodium deoxycholate (SIGMA #D6750), 0.1% SDS, 50 mM Tris pH 8.0, 20 mM sodium pyrophosphate (SIGMA #71515), 10 mM sodium fluoride, 10 mM β-glycerolphosphate, 1 mM sodium vanadate and protease inhibitor cocktail (Roche #04693124001), 1 tablet/10 ml lysis buffer). The supernatant was collected after 2 min at 14,000 rpm. This procedure was repeated until all fat was eliminated and the supernatant was clear, at 4° C. Samples were analysed on 4-15% polyacrylamide gels. Values were normalised toward AMPKα, β-Actin, GAPDH or the respective non-phosphorylated counterpart.
(§2) Table 3 contains origin of cell lines, growth conditions and settings for activation of AMPK via the test material. […]

The subject of assay [3] is AMPK in rat insulinoma INS-1 cells. The assay can be described thus: AMPK activation in INS-1 insulinoma cells. It is filed as cell-based. Particulars: 2.5, 5, 10 μM, 2 hours. The protocol:
as §1, §2

In assay [4] the test system is INS-1E cells. The assay can be described thus: Autophagic flux assay. Conditions: 5 μM, 24 h, ± 100 nM Bafilomycin A1. It is filed as cell-based. The procedure:
INS-1E cells were incubated for 24 h with or without 5 μM test material in the presence or absence of 100 nM Bafilomycin A1 (InvivoGen #tlrl-baf1) during the last 60 min of incubation. Levels of LC3II were determined by Western blot analysis and quantified.

Assay [5] relates to primary human hepatocytes. Nature of the assay: [1,2-14C] acetate incorporation into total lipids. It is filed as cell-based. Particulars: 0.625, 1.25, 2.5 or 5 μM. The protocol: Primary human hepatocytes (65,000-130,000 cells/well in 24-well dishes) were treated with vehicle control, 0.625, 1.25, 2.5 or 5 μM test material in serum free Williams' medium E, 2 hours, before addition of 0.25 μCi [1,2-^14C]-acetate/well for an additional 4 hours. 200 μl 0.5% trypsin was used to detach the cells before addition of 800 μl chloroform/methanol (2:1) and 500 μl 4 mM MgCl2. The samples were vortexed and spun at 14,000 rpm, 2 minutes before discarding the aqueous layer. The procedure was repeated twice, first with 700 μl chloroform/methanol (2:1) and 500 μl 4 mM MgCl2 and then 400 μl chloroform/methanol (2:1) and 500 μl 4 mM MgCl2. The organic phase was transferred into a scintillation vial and evaporated to dryness by a stream of nitrogen. The residue was dissolved in 3 ml liquid scintillation cocktail (Optiphase HiSafe 3, Perkin Elmer #1200.437) and 14 C determined for 1 minute in a Wallac 1414 beta counter (Perkin Elmer). Before lipid extraction, 10 μl samples were used to determine protein concentration. 14 C-values were normalised to cellular protein concentration.

For the molecule `O=C(Nc1nc(=O)n(Cc2ccc(Cl)cc2)s1)c1ccc(Cl)cc1` [test material, 4-chloro-N-[2-[(4-chlorophenyl)methyl]-3-oxo-1,2,4-thiadiazol-5-yl]benzamide], the “allosteric activation of AMPK” value in assay [1] is given as “did not allosterically activate AMPK”. The pAMPK result in assay [2] was “increased pAMPK”. Further, the pAMPKα entry in assay [3] is reported as “directly increased pAMPKα”. Moreover, in assay [4], the “autophagic flux (LC3II)” value is “enhanced autophagic flux”. Also, the lipid synthesis entry in assay [5] was “dose-dependently suppressed lipid synthesis”.
